US20140274782A1, “AFFINITY REAGENTS AND METHODS FOR DETECTION, PURIFICATION, AND PROTEOMIC ANALYSIS OF METHYLATED PROTEINS” (The Board of Trustees of the Leland Stanford Junior …, priority 2013, published 2014)

Key:
[1] = system: 3×MBT domain of L3MBTL1; test: SILAC proteomic pull-down 3×MBT vs 3×MBTD355N from 293T nuclear extract, LC-MS/MS; assay type: binding, human; settings: SILAC ratio, 293T nuclear extract pull-down; * = protein identified in only one labeling experiment
Method: Protein pull-downs were performed as described above using 600 μg of nuclear extract prepared with isotopic labels as indicated. After eluting with glutathione, 3×MBT domain was removed by dialysis into high salt and rebinding to GSH-sepharose. Bound proteins were separated by SDS-PAGE and analyzed by in-gel tryptic digest followed by LC-MS/MS. Peptides were identified using MaxQuant version 1.2.2.5 (Cox and Mann (2008) Nat. Biotechnol. 26, 1367-1372) and candidate methylated peptides were verified by manual inspection.
For stable isotope labeling by amino acids in cell culture (SILAC) experiments HEK 293T cells were grown for at least six doublings in DMEM for SILAC supplemented with 10% dialyzed fetal bovine serum (FBS), 230 mg/L L-proline and either 100 mg/L each of L-lysine and L-arginine (“light” medium), D4-L-lysine and ^13C6-L-arginine (“medium” media), or ^13C6^15N2-L-lysine and ^13C6^15N4-L-arginine (Thermo Scientific). Heavy methyl labeling used DMEM without L-Methionine or L-Cysteine supplemented with D3^13C-L-Methionine (Sigma), L-Cysteine (Sigma) and 10% dialyzed FBS.
600 μg of nuclear extract was incubated overnight rotating at 4° C. with 20 μl packed 3×MBT or 3×MBTD355N beads in a total volume of 250 μL with binding buffer. Supernatant was removed and saved for use as a loading control. Beads were washed 4×5 minutes with 0.5 mL binding buffer. Protein was eluted by incubating in 20 μL elution buffer (10 mg/mL glutathione in 50 mM Tris pH 8.0) rotating at 4° C. for four hours. Elutions from 3×MBT and 3×MBTD355N were combined and dialyzed overnight at 4° C. against 10,000× volume of dissociation buffer (50 mM Tris pH 7.5, 750 mM NaCl) in a 0.1 mL Slide-A-Lyzer MINI Dialysis Device with 3.5K molecular weight cutoff (Thermo Scientific). 80 μL of GSH-Sepharose was prepared by washing briefly three times with 0.5 mL binding buffer. Dialyzed proteins were added to the GSH-Sepharose and incubated 4 hours rotating at 4° C. to deplete the GST-fusion domains. Supernatant was transferred to a fresh 1.5 mL tube. Proteins were separated by SDS-PAGE on a 10% polyacrylamide gel and stained using SilverQuest Silver Staining Kit (Life Technologies). Lanes were excised, residual 3×MBT band was removed, and gel was diced into 0.5 mm cubes. Gel pieces were destained and processed by in-gel digestion (Carlson et al. (2011) Science Signaling 4) with sequencing grade trypsin (Promega) and the peptide sample was dried completely in a vacuum centrifuge. To prepare a loading control, 2 μL each of light and heavy nuclear extract were combined, 6 μL of 8M urea was added, proteins were denatured by adding 2 μL of 100 mM dithiothreitol in digest buffer (50 mM ammonium bicarbonate) and heating to 60° C. for 1 hour, cysteine was alkylated by adding 2.2 μL 100 mg/mL iodoacetamide in digest buffer and incubating 1 hour at room temperature in darkness, and proteins were digested by adding 80 μL trypsin (Promega) at 12.5 ng/μL in digest buffer and incubating overnight at room temperature in darkness. Digestion was stopped by adding 10 μL of 10% formic acid.
Each experiment consisted of two sets of pull-downs: “forward” labeling with 3×MBT incubated with light nuclear extract and 3×MBTD355N with medium extract, and a second “reverse” labeling experiment with the label conditions swapped. Proteins were included in the results if they were quantified in both labeling directions. To determine reproducibility the entire experiment including the label swap was duplicated using independent protein preparations and a mass spectrometer at another institution.
For 3×MBT pull-down experiment #1 the gel lane was processed and peptides were loaded off-line onto a first dimension trap column (Waters Xbridge, C18, 10 μm particle size, 100 Å pore size, 5 cm packing length, 150 μm column i.d.). […]

[2] = system: 3×MBT domain of L3MBTL1; test: Triple SILAC pull-down, 3xMBT/3xMBTD355N ratio (cytoplasmic, nuclear and chromatin fractions of 293T cells); assay type: binding, human; settings: SILAC ratio; for 3xMBT/D355N UNC Heavy / 3xMBT/D355N UNC Light: pull-down 3xMBT vs 3xMBTD355N; for 3xMBT/D355N UNC Heavy: experiment with UNC0638 in heavy SILAC media; for 3xMBT/D355N UNC Light: experiment with UNC0638 in light SILAC media; for Protein Ratios 3xMBT/D355N: pull-down by 3xMBT vs 3xMBTD355N, 293T cells;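 on all read-outs here: proteins quantified with MaxQuant, requiring at least two unique peptides and quantification in both label directions, normalized to the mean of proteins from a digested loading control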

Substance	Protein Ratio 3xMBT/D355N [1]	3xMBT/D355N UNC Heavy [2] [log base 2]	3xMBT/D355N UNC Light [2] [log base 2]	Protein Ratios 3xMBT/D355N [2]
DNA ligase 1	10.7	3.18	1.96	5.9
RBM25: protein with methylated lysine identified in 3xMBT pull-down	7.7	2.41	2.28	
MCM7: protein with methylated lysine identified in 3xMBT pull-down	6.7	2.23	2.52	
SSRP1: protein with methylated lysine identified in 3xMBT pull-down	14.6	4.47	4.11	
Protein Wiz	5.3	0.93	2.02	2.7
MSH6: protein with methylated lysine identified in 3xMBT pull-down	1.2	2.51	2.41	
